This note sets out measurements from US20250041387A1, “POLYPEPTIDE SEQUENCE OF KDM6B AND APPLICATION OF KDM6B IN REGULATING AND CONTROLLING FUNCTION OF MESENCHYMAL STEM CELL” (BEIJING STOMATOLOGICAL HOSPITAL, CAPITAL MEDICAL UNIVERSITY, priority 2021, published 2025).

Test [1] relates to senescent bone marrow mesenchymal stem cells. Nature of the test: Alizarin red staining and calcium quantification in senescent BMSCs of aged mice. The class given is cell-based, C57BL/6 mice. The settings on record: 2 weeks of osteogenic induction, FIG. 5C, D. As for the experimental part: (§1) Result of ALP activity was calculated according to Y/incubation time/protein concentration. • (3) Alizarin red staining • 1) After two weeks of osteogenic induction, the culture medium was discarded. The cells were washed three times with PBS pre-cooled at 4° C., and fixed with 70% ethanol at 4° C. for 1 hour. • 2) The cells were washed 2 times with double distilled water, and stained with 40 mM alizarin red solution (pH 4.2) at room temperature for 10 minutes. The staining was observed by naked eyes. • 3) The cells were washed 3 times with double-distilled water. • (4) Determination of Ca^2+ concentration
To quantitatively determine the concentration of calcium, the cells were added with 10% cetyl pyridinium chloride for dissolution for 30 minutes at room temperature. The OD value was measured at 562 nm using a spectrophotometer, and the calcium ion concentration of the samples was calculated according to the standard curve of calcium ion concentration, with the total protein concentration as an internal reference.

Test [2] has as its target T1, KDM6B/WDR5 protein complex (Homo sapiens, UniProt P61964). Nature of the test: Co-IP of KDM6B/WDR5 complex in bone marrow mesenchymal stem cells. The class given is cell-based. The arrangement: endogenous in cells; host or cells: bone marrow mesenchymal stem cells. The settings on record: FIG. 3C. As for the experimental part: (§2) Protein was extracted from cells of knockout group and overexpression group using IP lysate. The knockout group cells SCAPs-Scramsh and SCAPs-KDM6Bsh, SCAPs-Scramsh and SCAPs-WDR5sh, BMSCs-Scramsh and BMSCs-WDR5sh were added with KDM6B antibody, WDR5 antibody, and IgG antibody, respectively, and then rotated on a shaker at 4° C. overnight. On the next day, the cells were added with Protein A/G beads and rotated on a rotary shaker at 4° C. for 2 hours. A complex of protein-antibody-agarose bead was formed, and the formation of a protein complex of KDM6B and WDR5WB was detected by WB. The overexpression group cells SCAPs-Vector, SCAPs-HA-KDM6B, SCAPs-HA-KDM6B-mut102, and SCAPs-HA-KDM6B-mut114 were added with ProteinA/G beads with HA antibody, and cells SCAPs Vector and SCAPs-Myc-WDR5 were added with ProteinA/G beads with Myc antibody. All cells were incubated overnight to form a complex of protein-antibody-agarose bead. The formation of a protein complex of KDM6B and WDR5 was detected by WB method. • (2) Grouping: Input group (loading amount of 25 μg); antibody group (loading amount of 800 μg, 2 μg of antibody); IgG group (loading amount of 800 μg, 2 μg of antibody). Samples were diluted with lysate. • (3) Preparation of protein A/G beads
The protein A/G beads were washed 4 times with PBS, and centrifuged at 2000 g for 2 minutes. The supernatant was carefully collected, and added with PBS to achieve a content of protein A/G beads of 50%. 30 μL of protein A/G beads was added to each tube, and rotated at 4 degrees overnight. • (4) The samples were centrifuged at 5000 rpm for 30 s at 4° C., and washed 4-5 times with PBS by inverted up and down. Then the samples were centrifuged, and the supernatant was discarded. The samples were added with 30 μL of 2× loading buffer, and placed at 100° C. for 5 minutes. • (5) The supernatant was subjected to electrophoresis.

The test system of test [3] is bone marrow mesenchymal stem cells. Description: β-gal staining and quantification in BMSCs. The class given is cell-based, human. The settings on record: FIG. 4B, C. As for the experimental part: (§3) Prior to the start of the experiment, the GENMED staining solution (Reagent E) in the kit was taken out of the refrigerator at −20° C., and thawed in an ice bath. Then 9.5 mL of GENMED dilution (Reagent D) was added into a 15 ml conical centrifuge tube, added with 500 μL of GENMED staining solution (Reagent E), mixed well, and then preheated in a 37° C. thermostatic sink. The obtained mixture was labeled as GENMED staining working solution.

In test [4] the test system is stem cells from apical papilla. Description: β-gal staining and quantification in SCAPs. The class given is cell-based, human. The settings on record: SCAPs treated with polypeptide, FIG. 8C, D. As for the experimental part: as §3
Test [5] concerns stem cells from apical papilla. Nature of the test: ALP activity of SCAPs after odontogenic induction. The class given is cell-based, human. The settings on record: SCAPs treated with polypeptide, 3 days of odontogenic induction, FIG. 8E. As for the experimental part:
• (1) Osteogenic culture medium was purchased from Invitrogen, USA. • (2) Quantification of alkaline phosphatase (ALP) activity • 1) After 3 days of osteogenic induction, the culture medium was discarded, and the cells were washed with PBS twice. • 2) The cells were added with 500 μL of lysis buffer, and incubated at 37° C. for 15 minutes. • 3) The cells were scraped, transferred into a 1.5 mL EP tube, and centrifuged at 14000 rpm at 4° C. for 10 minutes. The supernatant was transferred into a new EP tube to measure the protein concentration, and the procedure was the same as that in Western blot. • 4) The capsule from the alkaline phosphatase kit (Stock substrate Sol.) was dissolved with 5 mL of distilled water under vigorous shaking, and mixed well. • 5) 50 μL of ALP buffer was added to 50 μL of Stock substrate Sol to obtain a mixture. 100 μL of the mixture was added to each well in a 96-well plate, then added with 10 μL of sample, and mixed well. A blank well without sample added was set for zero adjustment. • 6) The plate was incubated at 37° C. for 15 minutes, and the OD value was measured at 405 nm.
as §1

Test [6] addresses T1, KDM6B/WDR5 protein complex. Nature of the test: Co-IP of KDM6B/WDR5 complex in stem cells from apical papilla. The class given is cell-based. The arrangement: endogenous in cells; host or cells: stem cells from apical papilla (SCAPs). The settings on record: SCAPs treated with polypeptide, compared to control group; FIG. 8A. As for the experimental part:
as §2
The protein A/G beads were washed 4 times with PBS, and centrifuged at 2000 g for 2 minutes. […]

Consider “FITC-(Acp)-ADLTISHCAADVVRAYGRKKRRQRRR [peptide 114]”, for which the “mineralization capacity, quantification of calcium ion” value in test [1] was “significantly higher”; in test [1] (listed as 114 peptide), 1.251. Besides, the “opening/blocking of the binding of KDM6B/WDR5 protein complex (Co-IP)” value in test [2] is given as “could effectively open the binding”. For the same substance, the “number of β-gal positive cells (quantification)” value in test [3] is “significant reduction”; in test [3] (listed as 114 peptide), 16.76; in test [4], “significant reduction”; in test [4] (listed as 114 peptide) it was 3.978. Also, the ALP activity entry in test [5] is recorded as “promoted”; in test [5] (listed as 114 peptide), 0.7238. Further, the “binding of KDM6B to WDR5 (Co-IP)” value in test [6] is on record as “reduced”.
With “FITC-(Acp)-KEKSRRVLGNLDLQSYGRKKRRQRRR [peptide 102]”, the entries for the “mineralization capacity, quantification of calcium ion” value in test [1] and in test [1] (listed as 102 peptide) were “significantly higher” and 1.154, respectively. Further, the “opening/blocking of the binding of KDM6B/WDR5 protein complex (Co-IP)” value in test [2] was “could effectively open the binding”. In addition, the “number of β-gal positive cells (quantification)” value in test [3] was “significant reduction”; in test [3] (listed as 102 peptide), 19.33; in test [4], “significant reduction”; in test [4] (listed as 102 peptide), 7.296. The ALP activity entry in test [5] is given as “promoted”; in test [5] (listed as 102peptide), 0.3961. Besides, the “binding of KDM6B to WDR5 (Co-IP)” value in test [6] is reported as “reduced”.
